pIC50: −log10 of the molar value. Entries after “also recorded” stand apart in the source; their conditions may differ. Where two headings read alike, the source gives them in different places.
How the values were obtained:
[1] = test system: FXN mRNA; design: method as in PMID 16921367; details: FRDA primary lymphocytes; cited from earlier work
[2] = test system: FXN mRNA; details: cited from earlier work; for effect on FXN gene expression: lymphoid cells
[3] = test system: H2AFY2 mRNA; experiment: qRT-PCR of H2AFY2 mRNA in FRDA neuronal cells; type: cell-based, human; details: 24 h
Procedure: (§1) All methods for iPSC derivation ([32]) and neuronal differentiation ([28], [33]) have been presented. […] Quantitative RT-PCR was performed as described ([28]), with the following primer pairs: • FXN: 5′-[…]-3′ and 5′-[…]-3′ • HDAC1: 5′-[…]-3′ and 5′-[…]-3′ • HDAC2: 5′-[…]-3′ and 5′-[…]-3′ • HDAC3: 5′-[…]-3′ and 5′-[…]-3′ • PCGF2: 5′-[…]-3′ and 5′-[…]-3′ • H2AFY2: 5′-[…]-3′ and 5′-[…]-3′
(§2) Data were normalized to RNA concentration and p values calculated using the t-test. Western blotting was performed as described ([28]), with antibodies to HDACs 1, 2, and 3 from Abcam (ab7028, ab7029, ab7030, respectively), used at a dilution of 1:5000. […] Protein concentrations were determined with the BCA assay (Thermo Scientific).

[4] = test system: PCGF2 mRNA; experiment: qRT-PCR of PCGF2 mRNA in FRDA neuronal cells; type: cell-based, human; details: 24 h
Procedure: as §1, §2

[5] = cited from earlier work
[6] = test system: FXN mRNA; experiment: qRT-PCR of FXN mRNA in FRDA iPSC-derived neurons treated with HDAC inhibitors; type: cell-based, human; details: for effect on FXN mRNA levels: 16-day-old FRDA neurons, 24 h, varying concentrations (Figure 2); for up-regulation of FXN mRNA: 10 μM for 24 h, data not shown
Procedure: as §1, §2

[7] = design: method as in PMID 27721337, PMID 22973455; details: in vivo, cited from earlier work
[8] = target: T1, Recombinant human HDAC3/NCoR2 (Homo sapiens, UniProt O15379); experiment: HDAC3/NCoR2 deacetylase activity assay (acetyl-Lys(Ac)-AMC / Lys-C peptidase, progression curves)
[9] = target: T1, Recombinant human HDAC3/NCoR2; details: cited from earlier work
[10] = target: T2, Recombinant human HDAC1 (Homo sapiens, UniProt Q13547); details: cited from earlier work
[11] = target: T2, Recombinant human HDAC1; experiment: HDAC1 deacetylase activity assay (acetyl-Lys(Ac)-AMC / Lys-C peptidase, progression curves)
[12] = test system: FXN mRNA; design: method as in PMID 25159818; details: cited from earlier work
[13] = test system: HDAC; design: method as in PMID 16921367, PMID 18953021; details: cited from earlier work
[14] = design: method as in PMID 25159818; details: preclinical studies; cited from earlier work
[15] = test system: FXN mRNA; design: method as in PMID 12516053; details: cited from earlier work
[16] = fit of kobs versus inhibitor concentration
[17] = progression curves, mechanism 1
[18] = progression curves, mechanism 2

T2 sequence (Q13547 whole entry): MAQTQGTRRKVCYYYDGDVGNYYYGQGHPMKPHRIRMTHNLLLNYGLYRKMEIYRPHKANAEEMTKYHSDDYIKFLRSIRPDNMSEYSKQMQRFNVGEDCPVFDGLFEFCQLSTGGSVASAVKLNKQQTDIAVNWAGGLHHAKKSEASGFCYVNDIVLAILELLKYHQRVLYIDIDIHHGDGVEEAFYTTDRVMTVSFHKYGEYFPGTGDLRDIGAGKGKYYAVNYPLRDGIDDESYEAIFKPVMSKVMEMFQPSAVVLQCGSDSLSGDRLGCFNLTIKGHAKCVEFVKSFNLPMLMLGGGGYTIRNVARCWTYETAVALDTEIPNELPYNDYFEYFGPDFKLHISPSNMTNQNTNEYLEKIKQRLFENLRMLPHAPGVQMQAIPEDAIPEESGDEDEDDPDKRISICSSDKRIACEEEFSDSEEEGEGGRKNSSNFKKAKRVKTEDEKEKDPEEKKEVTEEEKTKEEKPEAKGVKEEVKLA
T1 sequence (O15379 whole entry): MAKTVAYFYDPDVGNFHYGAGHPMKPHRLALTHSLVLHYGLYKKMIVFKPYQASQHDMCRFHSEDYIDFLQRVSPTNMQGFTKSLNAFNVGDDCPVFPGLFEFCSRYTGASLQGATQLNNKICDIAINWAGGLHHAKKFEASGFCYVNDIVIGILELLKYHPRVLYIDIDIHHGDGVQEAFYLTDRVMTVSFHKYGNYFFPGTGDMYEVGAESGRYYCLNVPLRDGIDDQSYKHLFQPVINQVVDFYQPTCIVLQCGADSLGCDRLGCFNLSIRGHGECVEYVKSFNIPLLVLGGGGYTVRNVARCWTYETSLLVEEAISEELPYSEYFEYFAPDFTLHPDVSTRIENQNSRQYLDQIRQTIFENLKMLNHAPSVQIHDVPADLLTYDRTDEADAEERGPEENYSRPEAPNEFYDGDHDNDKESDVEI
T1 sequence (Q9Y618 395-489 partner limits assumed): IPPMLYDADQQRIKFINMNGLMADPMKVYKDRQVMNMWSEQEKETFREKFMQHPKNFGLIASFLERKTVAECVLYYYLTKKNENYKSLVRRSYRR

Nc1ccccc1NC(=O)CCCCCC(=O)Nc1ccccc1 [4b, N^1-(2-aminophenyl)-N^7-phenylheptanediamide]
FXN mRNA levels [1]: significantly increase FXN mRNA levels

Nc1ccccc1NC(=O)CCCCCCC(=O)Nc1ccccc1 [BML-210, N^1-(2-aminophenyl)-N^8-phenyloctanediamide]
FXN mRNA expression ([2]; FRDA lymphoblasts): significant increase

Nc1ccccc1NC(=O)/C=C/c1cn(C/C=C/c2ccccc2)nn1 [Click-1]
H2AFY2 mRNA level ([3]; 5 μM (lower concentrations)): significantly down-regulate
PCGF2 mRNA level ([4]; 5 μM (lower concentrations)): significantly down-regulate
brain/plasma ratio [5]: > 0.7
FXN mRNA increase compared with HDACi 109 ([6]; FRDA neuronal cells, varying concentrations (Figure 6B)): equivalent activities; also recorded: no loss of activity
metabolic conversion / benzimidazole formation [7]: stability to benzimidazole formation

Nc1ccc(-c2ccccc2)cc1NC(=O)CCCCCC(=O)Nc1ccccc1 [HDACi 3, N^1-(4-aminobiphenyl-3-yl)-N^7-phenylheptanediamide]
inhibition mechanism HDAC3 [8, 16]: mechanism 1
k1 HDAC3 [8, 17]: k1 = 600 min^-1 M^−1
k−1 HDAC3 [8, 17]: k−1 = 0.0015 min^−1
Selectivity HDAC3 (from IC50) ([8]; ratio of IC50 HDAC1 to IC50 HDAC3, from data of refs 25, 26): 0.013
pIC50 [9]: 5.02
pIC50 [10]: 6.90
effect on FXN mRNA levels [6]: no effect; also recorded: weakly active
inhibition mechanism HDAC1 [11, 16]: slow-on/slow-off inhibition mechanism 2
preference for HDAC1 over HDAC3 comparing IC50 values ([11]; from Table 1 values): ~ 75 fold
preference for HDAC1 over HDAC3 from Ki measurements ([11]; from Table 1 values): ~ 350 fold
k2 HDAC1 [11, 18]: k2 = 0.1675 min^−1
k−2 HDAC1 [11, 18]: k−2 = 0.0017 min^−1

Cc1ccc(NC(=O)CCCCCC(=O)Nc2ccccc2N)cc1 [HDACi 106]
inhibition mechanism HDAC1 [10]: slow-on/slow-off inhibitor
metabolic conversion / benzimidazole formation [7]: conversion of the active molecule into an inactive metabolic product

Cc1ccc(C(=O)NCCCCCC(=O)Nc2ccccc2N)cc1 [HDACi 109, N-(6-(2-aminophenylamino)-6-oxohexyl)-4-methylbenzamide]
metabolic conversion / benzimidazole formation [7]: conversion of the active molecule into an inactive metabolic product
metabolic conversion / benzimidazole formation ([7]; listed as 109/RG2833): conversion of the active molecule into inactive, potentially toxic metabolic products

Cc1ccc(C(=O)NCCCCCC(=O)Nc2ccc(F)cc2N)cc1 [HDACi 136, N-(6-(2-amino-4-fluorophenylamino)-6-oxohexyl)-4-methylbenzamide]
H2AFY2 mRNA level ([3]; 5 μM (lower concentrations)): inactive at lower concentrations
H2AFY2 mRNA level ([3]; 10 μM): moderately active
PCGF2 mRNA level ([4]; 5 μM (lower concentrations)): inactive at lower concentrations
PCGF2 mRNA level ([4]; 10 μM): moderately active
effect on FXN mRNA levels [6]: only a modest effect; also recorded: inactive

Nc1ccc(-c2cccs2)cc1NC(=O)CCCCCCNC(=O)c1cccnc1 [HDACi 233, N-(2-amino-5-(2-thienyl)phenyl)-7-nicotinoylamino-heptanamide]
selectivity for HDAC1 over HDAC3 [10]: > 200 fold
up-regulation of FXN mRNA ([6]; FRDA neuronal cells): did not
induction of FXN gene expression in FRDA neuronal cells [12]: weakly active

Nc1cc(F)ccc1NC(=O)/C=C/c1cnn(CC=Cc2ccccc2)c1 [HDACi 966, (E)-N-(2-amino-4-fluorophenyl)-3-(1-cinnamyl-1H-pyrazol-4-yl)acrylamide]
selectivity for HDAC3 over HDAC1/2 [9]: ~ 30 fold
up-regulation of FXN mRNA ([6]; FRDA neuronal cells): did not
induction of FXN gene expression in FRDA neuronal cells [12]: inactive

O=C(CCCCCCC(=O)Nc1ccccc1)NO [SAHA]
effect on FXN gene expression [2]: without effect on FXN gene expression

CC(/C=C/C(=O)NO)=C\[C@@H](C)C(=O)c1ccc(N(C)C)cc1 [TSA]
inhibition mechanism [13]: rapid-on/rapid-off inhibitors
effect on FXN gene expression [2]: without effect on FXN gene expression

c1ccc2[nH]cnc2c1 [benzimidazole]
risk category for inducing QTc prolongation [14]: high-risk category

NC(=O)c1cccnc1 [nicotinamide]
FXN mRNA levels ([2]; FRDA lymphoblasts): increases FXN mRNA levels

CCCC(=O)[O-].[Na+] [sodium butyrate]
ability to increase FXN mRNA expression [15]: only a modest effect

Reference: PMC4350406, “Mechanism of Action of 2-Aminobenzamide HDAC Inhibitors in Reversing Gene Silencing in Friedreich’s Ataxia” (Frontiers in Neurology, 2015)
